Source: PubChem BioAssay (NCI)
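Compound exposure: 48 hours, 5 concentrations, 96-well plates. GI50: concentration for 50% inhibition of growth. TGI denotes the concentration required for complete inhibition of growth.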

What was measured:
Assay in all cases: growth of human tumour cells (NCI), 48 h
HOP-92 NSCLC = tested on: HOP-92 NSCLC
M14 melanoma = tested on: M14 melanoma
SF-295 CNS = tested on: SF-295 CNS
NCI-H226 lung = tested on: NCI-H226 lung
HCT-15 colon = tested on: HCT-15 colon
A549 NSCLC = tested on: A549 NSCLC
OVCAR-5 ovarian = tested on: OVCAR-5 ovarian
HL-60(TB) leukemia = tested on: HL-60(TB) leukemia
HT29 colon = tested on: HT29 colon
NCI/ADR-RES ovarian = tested on: NCI/ADR-RES ovarian

Compound | GI50 (HOP-92 NSCLC) | TGI (HOP-92 NSCLC) | GI50 (M14 melanoma) | TGI (M14 melanoma) | GI50 (SF-295 CNS) | TGI (SF-295 CNS) | GI50 (NCI-H226 lung) | TGI (NCI-H226 lung) | GI50 (HCT-15 colon) | TGI (HCT-15 colon) | GI50 (A549 NSCLC) | TGI (A549 NSCLC) | GI50 (OVCAR-5 ovarian) | TGI (OVCAR-5 ovarian) | GI50 (HL-60(TB) leukemia) | TGI (HL-60(TB) leukemia) | GI50 (HT29 colon) | TGI (HT29 colon) | GI50 (NCI/ADR-RES ovarian) | TGI (NCI/ADR-RES ovarian)
[Cl][Sn]([c]1ccccc1)[c]1ccccc1 | 3.61 µM | 8.69 µM | 8.24 µM | 24.4 µM | 19.2 µM | 35.2 µM | 15.8 µM | 29.6 µM | 4.48 µM | 18 µM | 17.5 µM | 36.2 µM | 13.6 µM | 27.3 µM | 2.29 µM | 6.46 µM | 9.99 µM | 24.2 µM |  | 
Cc1cc2occ(C)c(=O)c2c2c1OC(C)(C)S2 |  | > 100 µM |  | > 100 µM |  | > 100 µM |  | > 100 µM |  | > 100 µM |  | > 100 µM |  | > 100 µM |  | > 100 µM |  | > 100 µM |  | 
c1cncc(C2c3[nH]c4ccccc4c3CCN2CCN2CCCCC2)c1 (centres undefined) |  | > 100 µM |  | 32.3 µM |  | > 100 µM |  |  |  | > 100 µM |  | > 100 µM |  | > 100 µM |  | > 100 µM |  | > 100 µM |  | 
c1cc2c(cnc3cscc32)s1 |  | > 100 µM |  | > 100 µM |  | > 100 µM |  | > 100 µM |  | > 100 µM |  | > 100 µM |  | > 100 µM |  | > 100 µM |  | > 100 µM |  | 
Cn1c(=O)c2c(nc3n2CCC(=O)N3)n(C)c1=O |  | > 100 µM |  |  |  | > 100 µM |  | > 100 µM |  |  |  | > 100 µM |  | > 100 µM |  | > 100 µM |  | > 100 µM |  | 
COC(=O)C12C3C4C1C1C2C3C41I (centres undefined) |  | > 100 µM |  | > 100 µM |  | > 100 µM |  | > 100 µM |  | > 100 µM |  | > 100 µM |  | > 100 µM |  | > 100 µM |  | > 100 µM |  | 
Cc1c(C(=O)CC(=O)C(=O)NC2C3CC4CC(C3)CC2C4)[n+](=O)c2ccccc2n1[O-] (centres undefined) |  | > 100 µM |  | > 100 µM |  | > 100 µM |  | > 100 µM |  | > 100 µM |  | > 100 µM |  | > 100 µM |  | > 100 µM |  | > 100 µM |  | 
CC(=O)O/C(C)=C\C(=O)O/N=C(\N)c1ccc(C)cc1 |  | > 100 µM |  | 93.1 µM |  | > 100 µM |  | 92.9 µM |  |  |  | > 100 µM |  | > 100 µM |  | 77.3 µM |  | > 100 µM |  | 
CCOC(=O)/C=C(/CN1C(=O)c2ccccc2C1=O)c1ccccc1 |  | > 100 µM |  | > 100 µM |  | > 100 µM |  | > 100 µM |  | > 100 µM |  | > 100 µM |  | > 100 µM |  |  |  | > 100 µM |  | 
COc1cccc2c(=O)c3c(sc12)c(NCCCN)nc1ccccc13 | 1.27 µM | 2.75 µM |  |  | 1.77 µM | 3.25 µM | 1.52 µM | 3.15 µM | 1.32 µM | 2.7 µM |  |  | 1.65 µM | 3.01 µM | 1.98 µM | 3.94 µM | 1.41 µM | 2.99 µM |  | 
CCCCCCCCCCCCC(SCCNC(=O)CCNC(=O)C(O)C(C)(C)COP(=O)(O)OP(=O)(O)OCC1OC(n2cnc3c(N)ncnc32)C(O)C1OP(=O)(O)O)C(=O)NCC(N)=O (centres undefined) |  | > 100 µM |  | > 100 µM |  | > 100 µM |  | > 100 µM |  | > 100 µM |  | > 100 µM |  | > 100 µM |  | > 100 µM |  | > 100 µM |  | 
C=CCN(N=O)C(=O)N(CCC)CCCC(NC(C)=O)C(=O)NCc1ccccc1 (centres undefined) |  |  |  | > 100 µM |  | > 100 µM |  |  |  | > 100 µM |  | > 100 µM |  | > 100 µM |  | > 100 µM |  | > 100 µM |  | 
CN(C)CCNc1cccc2sc3ccc(O)cc3c(=O)c12 |  |  | 1.85 µM | 4.33 µM | 6.53 µM | 22.3 µM | 5.94 µM | 23.1 µM | 1.43 µM | 5.09 µM | 0.643 µM | 5.54 µM | 7.32 µM | 22.8 µM | 1.53 µM | 3.74 µM | 1.63 µM | 4.08 µM | 3.14 µM | 12.7 µM
Cc1ccc(N2C(=O)C(Cl)=C(Nc3cccc(O)c3)C2=O)cc1Cl | 15.7 µM | 37.6 µM | 17.6 µM | 32.3 µM | 17.8 µM | 36.5 µM |  |  | 18.6 µM | 40.1 µM | 12.8 µM | 29.7 µM | 16.5 µM | 31.9 µM |  |  |  |  | 21.6 µM | 54.7 µM
CCOC(=O)c1c2ccc(/C=C/C(=O)OC)ccc-2c(C(=O)OCC)c1N |  | > 100 µM |  | > 100 µM |  | > 100 µM |  | > 100 µM |  | > 100 µM |  | > 100 µM |  | > 100 µM |  | > 100 µM |  | > 100 µM |  | 
O=C1c2cccc3cc([N+](=O)[O-])cc(c23)C(=O)N1CCCN1CCN(CCCN2C(=O)c3cccc4cc([N+](=O)[O-])cc(c34)C2=O)CC1 |  | 5.2 µM |  | 4.87 µM |  | 12.4 µM |  | 1.37 µM |  | > 100 µM |  | > 100 µM |  | > 100 µM |  | 12.8 µM |  | > 100 µM |  | 
O=c1oc2c3ccc4ccccc4c3n(Cc3nc4ccccc4[nH]3)c2c2ccccc12 |  | > 100 µM |  | > 100 µM |  | > 100 µM |  | > 100 µM |  | > 100 µM |  | > 100 µM |  | > 100 µM |  | 20 µM |  | > 63.4 µM |  | 
COc1ccc2c(C3(O)CCNCC3)c[nH]c2c1 |  | > 100 µM |  | > 100 µM |  | > 100 µM |  |  |  | > 100 µM |  | > 100 µM |  | > 100 µM |  | > 100 µM |  | > 100 µM |  | 
CC1(C)OC2C(=O)OC(COCc3ccccc3)C2O1 (centres undefined) |  | > 100 µM |  | > 100 µM |  | > 100 µM |  | > 100 µM |  | > 100 µM |  | > 100 µM |  | > 100 µM |  | > 100 µM |  | > 100 µM |  | 
CCOC(OC1=C(C#N)CCC1)C(CC)[Se]c1ccccc1 (centres undefined) |  | 54 µM |  | 32.3 µM |  | 52.7 µM |  | 53.4 µM |  | > 100 µM |  | > 100 µM |  | 54.8 µM |  | 38.4 µM |  | 80.5 µM |  | 
c1ccc(COc2ccc3[nH]c4c(ncc5[nH]c6ccccc6c54)c3c2)cc1 |  | 29.9 µM |  | 26.7 µM |  | 28.2 µM |  | 30.9 µM |  | 14.9 µM |  | 34.9 µM |  | 33.6 µM |  | 4.35 µM |  | 17.8 µM |  | 
